US20190337924A1, “SUBSTITUTED HYDANTOIN AND THIOHYDANTOIN DERIVATIVES AS ANDROGEN RECEPTOR ANTAGONISTS” (Janssen Pharmaceutica NV, priority 2016, published 2019)
Structures can show the parent of a compound that is named as a salt.

Compound CC1(C)C(=O)N(c2ccc(C#N)c(Cl)c2)C(=S)N1c1ccc(OC2CCNCC2)cc1 (as salt: hydrochloride) [Compound 7, 2-Chloro-4-(4,4-dimethyl-5-oxo-3-(4-(piperidin-4-yloxy)phenyl)-2-thioxoimidazolidin-1-yl)benzonitrile hydrochloride] has a melting point of over 300 °C.

In order of falling melting point:
1. N#Cc1ccc(N2C(=O)C3(CCC3)N(c3ccc(OC4CCNCC4)nc3)C2=S)cc1Cl (as salt: hydrochloride) [Compound 23, 2-Chloro-4-(8-oxo-5-(6-(piperidin-4-yloxy)pyridin-3-yl)-6-thioxo-5,7-diazaspiro[3.4]octan-7-yl)benzonitrile hydrochloride]  260.1 °C
2. CN1CCC(Oc2ccc(N3C(=S)N(c4ccc(C#N)c(Cl)c4)C(=O)C3(C)C)cc2)CC1 (as salt: hydrochloride) [Compound 8, 2-Chloro-4-(4,4-dimethyl-3-(4-((1-methylpiperidin-4-yl)oxy)phenyl)-5-oxo-2-thioxoimidazolidin-1-yl)benzonitrile hydrochloride]  251.7 °C
3. CN1CCC(Oc2ccc(N3C(=S)N(c4ccc(C#N)c(Cl)c4)C(=O)C34CCC4)cn2)CC1 (as salt: hydrochloride) [Compound 24, 2-Chloro-4-(5-(6-((1-methylpiperidin-4-yl)oxy)pyridin-3-yl)-8-oxo-6-thioxo-5,7-diazaspiro[3.4]octan-7-yl)benzonitrile hydrochloride]  239 °C
4. CN1CCC(Oc2ccc(N3C(=S)N(c4ccc(C#N)c(Cl)c4)C(=O)C3(C)C)cn2)CC1 (as salt: hydrochloride) [Compound 10, 2-Chloro-4-(4,4-dimethyl-3-(6-((1-methylpiperidin-4-yl)oxy)pyridin-3-yl)-5-oxo-2-thioxoimidazolidin-1-yl)benzonitrile hydrochloride]  220.9 °C
5. CC1(C)C(=O)N(c2ccc(C#N)c(Cl)c2)C(=S)N1c1ccc(OC2CCNCC2)nc1 (as salt: hydrochloride) [Compound 9, 2-Chloro-4-(4,4-dimethyl-5-oxo-3-(6-(piperidin-4-yloxy)pyridin-3-yl)-2-thioxoimidazolidin-1-yl)benzonitrile hydrochloride]  216.5 °C
